Where two headings read alike, the source gives them in different places.
Legend:
[1] = system: MCF-7 breast cancer cells; test: MTT proliferation inhibition, MCF-7; assay type: cell-based; conditions: Homo sapiens, MCF7, read-out: Proliferation inhibition rate, MCF-7 Breast cancer
From the text: (§1) 1. Cytotoxicity Assay Using Human Tumor Cell Lines
(§2) Paclitaxel was used as the positive drug.

[2] = system: HT-29 colon cancer; test: MTT proliferation inhibition, HT-29; assay type: cell-based; conditions: Homo sapiens, HT-29, read-out: Proliferation inhibition rate, HT29 Colon cancer
From the text: as §1, §2

[3] = system: HL-60 leukemia; test: MTT proliferation inhibition, HL-60; assay type: cell-based; conditions: Homo sapiens, HL-60, read-out: Proliferation inhibition rate, HL60 Leukemia
From the text: as §1, §2

[4] = system: MDA-MB-436 breast cancer cells; test: MTT proliferation inhibition, MDA-MB-436; assay type: cell-based; conditions: Homo sapiens, MDA-MB-436, read-out: Proliferation inhibition rate, MDA-MB-436 Breast cancer
From the text: as §1, §2

[5] = system: LN-18; test: MTT proliferation inhibition, LN-18; assay type: cell-based; conditions: Homo sapiens, LN-18, read-out: Proliferation inhibition rate, LN-18 Gastric canser
From the text: as §1, §2

[6] = Caco-2 cell monolayer membrane transport assay (Papp and recovery); assay type: in vitro ADME; conditions: human, Caco-2, Caco-2, A-B
From the text: Caco-2 Cell Monolayer Membrane Transport Assay
(§3) Human-derived colorectal adenocarcinoma cell line Caco-2 cell monolayer model was used to study the bidirectional transport of the target compounds from the apical (AP) side to the basolateral (BL) side and from BL side to AP side. HPLC was used for quantitative analysis to calculate transport parameters, apparent permeability coefficient (Papp) and the efflux ratio.

[7] = system: Caco-2 cell monolayer; test: Caco-2 bidirectional transport, efflux ratio; conditions: Caco-2 cell line (21 days)
From the text: as §3

CO[C@H]1C[C@H]2OC[C@@]2(OC(C)=O)[C@H]2[C@H](OC(=O)c3ccccc3)[C@]34OC(=O)O[C@H]3[C@H](OC(=O)[C@H](O)[C@@H](NC(=O)OC(C)(C)C)c3ccccc3)C(C)=C([C@@H](OC(=O)N(C)C)C(=O)[C@]12C)C4(C)C [PCMI-08]
inhibition at 1 µM [1]: 81.3%
inhibition at 1 µM [2]: 81.7%
inhibition at 1 µM [3]: 96.8%
inhibition at 1 µM [4]: 65.7%
inhibition at 1 µM [5]: 87.7%
Papp A→B ([6]; Mean, read-out: Papp A-B, Mean): > 10 ×10⁻⁶ cm/s
recovery ([6]; Mean, read-out: Recovery rate in mass, Mean): 99.4%
Papp A→B ([6]; Sample-01, read-out: Papp A-B, Sample-01): 19.5 ×10⁻⁶ cm/s
recovery ([6]; Sample-01, read-out: Recovery rate in mass, Sample-01): 102%
Papp A→B ([6]; Sample-02, read-out: Papp A-B, Sample-02): 17.3 ×10⁻⁶ cm/s
recovery ([6]; Sample-02, read-out: Recovery rate in mass, Sample-02): 97%
Papp A-B ([7]; A-B): 16.40 10^−6 cm/s
Papp B-A ([7]; B-A): 33.48 10^−6 cm/s
efflux ratio ([7]; Papp B-A/Papp A-B): 2.04
